In experiment [1] the test system is splenocytes. Description: Splenocyte IFNγ release 48 hours after pseudofracture trauma, mice given 1400 W. The format is in vivo. The following applies: C57BL/6 mice, 1400 W 5 mg/kg intraperitoneally. Here is the method:
Control mice received no experimental manipulation.
Mice were euthanized at 6 and 48 hours.

Experiment [2] has as its system splenocytes. Description: Splenocyte proliferation (3H-dT uptake) 48 hours after pseudofracture + laparotomy, NOX-100 by osmotic pump. The format is in vivo, C57BL/6 mice. The following applies: PF+laparotomy, NOX-100 30 mg/kg/hr over 48 hours by intraperitoneal osmotic pump, Mean±SEM. As to the method:
The mice were divided into six groups (n=5-10):
(§1) Mice then also received either NOX-100 at a dose of 30 mg/kg/hr or vehicle (Veh) over the 48 hour time period. A controlled, continuous drug delivery rate was established through the use of osmotic pumps inserted intraperitoneally by laparotomy. Laparotomy with pump insertion was performed at the time of trauma (0 hours). Please note that the laparotomy procedure itself is considered a significant trauma. Mice in the ‘Unmanipulated controls’ group received no experimental manipulation.
Mice were euthanized at a 48 hour time point. Measurements at this late time point included assessment of splenocyte responses. Splenocyte proliferation, a well established parameter of immune dysfunction was assessed. […] Splenocyte proliferation was assessed using tritiated thymidine (^3H-dT) uptake as counts per minute (c.p.m.).

Experiment [3] has as its system splenocytes. Description: Splenocyte interferon-gamma release (ELISA) 48 hours after pseudofracture + laparotomy, NOX-100 by osmotic pump. The format is in vivo, C57BL/6 mice. Here is the method:
as §1
Additional measurements of splenocyte responses at the late 48 hr time point included assessment of splenocyte interferon-gamma release, an established parameter of immune dysfunction. […] Splenocyte culture supernatants were collected and assessed by ELISA.

Regarding `CC(=N)NCc1cccc(CN)c1` [1400 W, N-(3-(Aminomethyl)benzyl)acetamidine], the “Interferon-gamma release by splenocytes after antiCD3e stimulation following trauma” value in experiment [1] (antiCD3e 1 μg/ml (FIG. 6)) is reported as “no depression in cytokine release”. The “Concanavalin A stimulated splenocyte cytokine release (IFNγ) following trauma” value in experiment [1] (concanavalin A 2.5 μg/ml (FIG. 4)) is “not significantly reduced”.

In the case of `CN(C[C@H](O)[C@@H](O)[C@H](O)[C@H](O)CO)C(=S)[S][Na]` [NOX-100], in experiment [2] (antiCD3e 1 μg/ml, p<0.05 vs vehicle (FIG. 9B)), the “Splenocyte proliferation, tritiated thymidine uptake after antiCD3e stimulation” value is given as 45208.9±4890.5 c.p.m. The “Splenocyte proliferation, tritiated thymidine uptake after concanavalin A stimulation” value in experiment [2] (concanavalin A 2.5 μg/ml, p=0.062 vs vehicle (FIG. 9A)) came out at 33658.6±3787.9 c.p.m. For the same compound, the “Post-injury decrease in splenocyte release of interferon gamma, effect of administration” value in experiment [3] (48 hrs post injury, NOX-100 30 mg/kg/hr (FIGS. 10A-B)) is “reversed”. In addition, the “Splenocyte interferon-gamma release after antiCD3e stimulation” value in experiment [3] (PF+laparotomy, NOX-100 30 mg/kg/hr over 48 hours by intraperitoneal osmotic pump, antiCD3e 1 μg/ml, Mean±SEM, p<0.05 vs vehicle (FIG. 10B)) worked out at 604.70 ± 86.96 pg/mL.
